Measurements from patent US8278465B2, “Coumarin derivative having antitumor activity” (Chugai Seiyaku Kabushiki Kaisha, priority 2006, dated 2012).
Read-outs that look alike come from different tables or passages of the source.

System: human colon cancer cell line HCT116
Test: Measurement of cell proliferation inhibitory activity (Cell Counting Kit-8)
Format: cell-based
Details: HCT116, 4 days incubation, read-out: IC50 (50% proliferation inhibitory concentration)
Procedure: The cell proliferation inhibitory activities of the compounds and salts shown in Tables 1-1, 1-2 and Table 2 were measured as follows, using the human colon cancer cell line HCT116 (American Type Culture Collection, VA, USA). 2000 to 3000 cells per well of the human colon cancer cell line HCT116 was placed in a 96-well culture plate, a predetermined concentration (0.00038 μM, 0.00076 μM, 0.0015 μM, 0.0031 μM, 0.0061 μM, 0.012 μM, 0.024 μM, 0.049 μM, 0.098 μM, 0.195 μM, 0.39 μM, 0.78 μM, 1.56 μM, 3.13 μM, 6.25 μM, 12.5 μM, 25 μM or 50 μM) of the test substance was added thereto, and the mixture was then incubated at 37° C. under 5% CO2 environment for 4 days. On day 4 of incubation, the Cell Counting Kit-8 solution (Dojindo Laboratories) was added, the absorbance (measurement wavelength: 450 nm; reference wavelength: 615 nm) was measured following the protocol attached to the kit, and the 50% proliferation inhibitory concentration (IC50) was calculated.

[1] = Homo sapiens, HCT-116, 96 h, Table 1-1
[2] = Homo sapiens, HCT-116, 96 h, Table 1-2

| IC50 [2] [nM] | SMILES | IC50 [1] [nM] | also measured |
| --- | --- | --- | --- |
| – | Cc1c(Cc2ccccc2)c(=O)oc2cc(OC(=O)N(C)C)c(Cl)cc12 [Comp. 2, dimethylcarbamic acid 2-oxo-2H-3-benzyl-4-methyl-6-chloro-1-benzopyran-7-yl ester, reference compound] | – | IC50 (Table 1-2): 1300 nM |
| – | CNS(=O)(=O)Nc1cccc(Cc2c(CF)c3cc(Cl)c(OC(=O)N(C)C)cc3oc2=O)c1 [Compound 1j-1-3-2F, Dimethylcarbamic acid 6-chloro-4-fluoromethyl-3-{3-(methylaminosulfonyl)aminobenzyl}-2-oxo-2H-1-benzopyran-7-yl ester] | 19.5 | – |
| – | Cc1c(Cc2cccc(NS(N)(=O)=O)c2F)c(=O)oc2cc(OC(=O)N(C)C)ccc12 [Compound 1j-1-4-1, Dimethylcarbamic acid 3-(3-aminosulfonylamino-2-fluoro-benzyl)-4-methyl-2-oxo-2H-1-benzopyran-7-yl ester] | 17.6 | – |
| – | CNS(=O)(=O)Nc1cccc(Cc2c(C)c3ccc(OC(=O)N(C)C)cc3oc2=O)c1F [Compound 1j-1-4-2, Dimethylcarbamic acid 3-(3-methylaminosulfonylamino-2-fluorobenzyl)-4-methyl-2-oxo-2H-1-benzopyran-7-yl ester] | 9.3 | – |
| – | CNS(=O)(=O)Nc1cccc(Cc2c(CF)c3ccc(OC(=O)N(C)C)cc3oc2=O)c1F [Compound 1j-1-4-2F, Dimethylcarbamic acid 3-(3-methylaminosulfonylamino-2-fluorobenzyl)-4-fluoromethyl-2-oxo-2H-1-benzopyran-7-yl ester] | 10.6 | – |
| – | Cc1c(Cc2cccc(NS(N)(=O)=O)c2F)c(=O)oc2cc(OC(=O)N(C)C)c(F)cc12 [Compound 1j-1-5-1, Dimethylcarbamic acid 3-{2-fluoro-3-(aminosulfonyl)aminobenzyl}-6-fluoro-4-methyl-2-oxo-2H-1-benzopyran-7-yl ester] | 8.3 | – |
| – | CNS(=O)(=O)Nc1cccc(Cc2c(C)c3cc(F)c(OC(=O)N(C)C)cc3oc2=O)c1F [Compound 1j-1-5-2, Dimethylcarbamic acid 6-fluoro-4-methyl-3-{2-fluoro-3-(methylaminosulfonyl)aminobenzyl}-2-oxo-2H-1-benzopyran-7-yl ester] | 2.9 | – |
| – | Cc1c(Cc2cccc(NS(N)(=O)=O)c2)c(=O)oc2cc(OC(=O)N(C)C)c(I)cc12 [Compound 1j-1-7-1, Dimethylcarbamic acid 3-{3-(aminosulfonyl)aminobenzyl}-6-iodo-4-methyl-2-oxo-2H-1-benzopyran-7-yl ester] | 11.4 | – |
| – | CNS(=O)(=O)Nc1cccc(Cc2c(C)c3cc(I)c(OC(=O)N(C)C)cc3oc2=O)c1 [Compound 1j-1-7-2, Dimethylcarbamic acid 6-iodo-4-methyl-3-{3-(methylaminosulfonyl)aminobenzyl}-2-oxo-2H-1-benzopyran-7-yl ester] | 7.9 | – |
| – | CNS(=O)(=O)Nc1cccc(Cc2c(C)c3cc(C)c(OC(=O)N(C)C)cc3oc2=O)c1 [Compound 1j-1-8-2, Dimethylcarbamic acid 6-methyl-4-methyl-3-{3-(methylaminosulfonyl)aminobenzyl}-2-oxo-2H-1-benzopyran-7-yl ester] | 21.7 | – |
| – | CNS(=O)(=O)Nc1cccc(Cc2c(C)c3cc(C#N)c(OC(=O)N(C)C)cc3oc2=O)c1 [Compound 1j-1-9-2] | 24.2 | – |
| 21.1 | CNS(=O)(=O)Nc1nccc(Cc2c(C)c3cc(F)c(Oc4ncccn4)cc3oc2=O)c1F [Compound 1j-2-17-2, 3-{2-(methylaminosulfonyl)amino-3-fluoropyridin-4-ylmethyl}-4-methyl-6-fluoro-7-(pyrimidin-2-yloxy)-2-oxo-2H-1-benzopyran] | – | – |
| 5.9 | CNS(=O)(=O)Nc1nccc(Cc2c(C)c3cc(Cl)c(Oc4ncccn4)cc3oc2=O)c1F [Compound 1j-2-18-2, 3-{2-(Methylaminosulfonyl)amino-3-fluoropyridin-4-ylmethyl}-4-methyl-6-chloro-7-(pyrimidin-2-yloxy)-2-oxo-2H-1-benzopyran] | – | – |
| 17.8 | CNS(=O)(=O)Nc1nccc(Cc2c(C)c3cc(C)c(Oc4ncccn4)cc3oc2=O)c1F [Compound 1j-2-19-2, 3-{2-(Methylaminosulfonyl)amino-3-fluoropyridin-4-ylmethyl}-4-methyl-6-methyl-7-(pyrimidin-2-yloxy)-2-oxo-2H-1-benzopyran] | – | – |
| 8.4 | CCc1c(Cc2ccnc(NS(=O)(=O)NC)c2F)c(=O)oc2cc(Oc3ncccn3)c(C)cc12 [Compound 1j-2-19-2Me, 3-{2-(Methylaminosulfonyl)amino-3-fluoropyridin-4-ylmethyl}-4-ethyl-6-methyl-7-(pyrimidin-2-yloxy)-2-oxo-2H-1-benzopyran] | – | – |
| 22.5 | Cc1c(Cc2cccc(NS(N)(=O)=O)c2F)c(=O)oc2cc(Oc3nccs3)ccc12 [Compound 1j-3-4-1, 3-{2-Fluoro-3-(aminosulfonyl)aminobenzyl}-4-methyl-7-(thiazol-2-yloxy)-2-oxo-2H-1-benzopyran] | – | – |
| 10.9 | CNS(=O)(=O)Nc1cccc(Cc2c(C)c3ccc(Oc4nccs4)cc3oc2=O)c1F [Compound 1j-3-4-2, 3-{2-Fluoro-3-(methylaminosulfonyl)aminobenzyl}-4-methyl-7-(thiazol-2-yloxy)-2-oxo-2H-1-benzopyran] | – | – |
| 12.2 | CNS(=O)(=O)Nc1cc(Cc2c(C)c3cc(Cl)c(Oc4nccs4)cc3oc2=O)ccn1 [Compound 1j-3-12-2, 3-{2-(Methylaminosulfonyl)aminopyridin-4-ylmethyl}-4-methyl-6-chloro-7-(thiazol-2-yloxy)-2-oxo-2H-1-benzopyran] | – | – |
| 1.5 | CNS(=O)(=O)Nc1nccc(Cc2c(C)c3cc(C)c(Oc4nccs4)cc3oc2=O)c1F [Compound 1j-3-19-2, 3-{2-(Methylaminosulfonyl)amino-3-fluoropyridin-4-ylmethyl}-4-methyl-6-methyl-7-(thiazol-2-yloxy)-2-oxo-2H-1-benzopyran] | – | – |
| 8.9 | CNS(=O)(=O)Nc1cc(Cc2c(C)c3cc(C)c(Oc4nccs4)cc3oc2=O)ccn1 [Compound 1j-3-20-2, 3-{2-(Methylaminosulfonyl)aminopyridin-4-ylmethyl}-4-methyl-6-methyl-7-(thiazol-2-yloxy)-2-oxo-2H-1-benzopyran] | – | – |
| 12.9 | CNS(=O)(=O)Nc1nccc(Cc2c(C)c3cc(C)c(Oc4nccs4)cc3oc2=O)c1Cl [Compound 1j-3-44-2, 3-{2-(Methylaminosulfonyl)amino-3-chloropyridin-4-ylmethyl}-4-methyl-6-methyl-7-(thiazol-2-yloxy)-2-oxo-2H-1-benzopyran] | – | – |

| SMILES | IC50 [2] [nM] | IC50 [1] [nM] | also measured |
| --- | --- | --- | --- |
| CNS(=O)(=O)Nc1cc(Cc2c(C)c3ccc(OC(=O)N(C)C)cc3oc2=O)ccn1 [Compound 1j-1-10-2, Dimethylcarbamic acid 4-methyl-3-{2-(methylaminosulfonyl)aminopyridin-4-ylmethyl}-2-oxo-2H-1-benzopyran-7-yl ester] | 31.9 | – | – |
| CNS(=O)(=O)Nc1cc(Cc2c(C)c3cc(F)c(OC(=O)N(C)C)cc3oc2=O)ccn1 [Compound 1j-1-11-2, Dimethylcarbamic acid 4-methyl-3-{2-(methylaminosulfonyl)aminopyridin-4-ylmethyl}-6-fluoro-2-oxo-2H-1-benzopyran-7-yl ester] | 18.3 | – | – |
| CNS(=O)(=O)Nc1cc(Cc2c(C)c3cc(Cl)c(OC(=O)N(C)C)cc3oc2=O)ccn1 [Compound 1j-1-12-2, Dimethylcarbamic acid 4-methyl-3-{2-(methylaminosulfonyl)aminopyridin-4-ylmethyl}-6-chloro-2-oxo-2H-1-benzopyran-7-yl ester] | 6.4 | – | – |
